Literature values, collected in patent publication US20110052727A1, “Anti Influenza Nutritional Supplements” (priority 2009, published 2011).
Read-outs that look alike come from different tables or passages of the source.

How the values were obtained:
[1] = tested on: MDCK cells; settings: up to 1 mM
[2] = tested on: influenza A/PR/8 virus
[3] = tested on: influenza A/Chile/1/83 (H1N1) virus; settings: compared with ECG and EGC
[4] = tested on: influenza A/Chile/1/83 (H1N1) virus; settings: MDCK cells; read-out: 50% effective inhibition concentration (EC50)
[5] = molecular target: neuraminidase; settings: read-out: concentration for reduction of half enzymatic activity (neuraminidase)
[6] = tested on: MDCK cells; settings: read-out: dose that reduced cell viability about 50% (CC50)
[7] = tested on: MDCK cells
[8] = tested on: influenza A/Chile/1/83 (H1N1) virus; settings: 500 μM
[9] = tested on: Influenza A Virus (Strain A/Yamagata/120/86 H1N1); settings: 1.5 μM; 60 min treatment
[10] = tested on: influenza A/Bangkok/1/79 virus; settings: selenium adequate diet, vs deficient diet still severe at day 21
[11] = tested on: influenza A Bangkok 1/79; settings: Se- vs Se+ conditions; 24 hours post infection
[12] = tested on: influenza A/Kumamoto/1/65 virus
[13] = tested on: MDCD cells; settings: 100 μg/ml
[14] = tested on: influenza A/WS/33 virus
[15] = tested on: influenza virus A/Udorn/317/72(H3N2); settings: quercetin orally 1 mg/day for 5 consecutive days
[16] = tested on: influenza virus A/Puerto Rico/8/34 (H1N1)

NC(=O)c1c[se]c([C@@H]2O[C@H](CO)[C@@H](O)[C@H]2O)n1 [Selenazofurin, selenazofurin]
cytotoxic effect on cells [1]: no cytotoxic effect

O=C/C=C/c1ccccc1 [CA, trans-cinnamaldehyde]
virus yield of control (maximum inhibitory effect) ([2]; 40 μM, treatment given 3 hours post infection): 29.7% | virus yield ([2]; 200 μM): undetectable level

(−)-epigallocatechin gallate [EGCG]
hemagglutination inhibition activity [3]: most effective | EC50 [4]: 22 to 28 µM | IC50 [5]: ~350 µM | CC50 [6]: 275 ± 22.8 µM | toxicity relative to derivatives [7]: less toxic than most of its derivatives | inhibition of viral RNA synthesis [8]: about 80% | inhibition of plaque forming activity [9]: ~100%

[Se] [selenium, Selenium]
lung pathology [10]: began to diminish after day 6 | influenza-induced apoptosis [11]: Se deficiency enhanced influenza-induced apoptosis

CC1(C)[C@@H](O[C@H]2O[C@H](C(=O)O)[C@@H](O)[C@H](O)[C@H]2O[C@@H]2O[C@H](C(=O)O)[C@@H](O)[C@H](O)[C@H]2O)CC[C@]2(C)[C@H]3C(=O)C=C4[C@@H]5C[C@@](C)(C(=O)O)CC[C@]5(C)CC[C@@]4(C)[C@]3(C)CC[C@@H]12 [Glycyrrhizin]
survival ([12]; 10 mg/kg 1 day before and 1 and 4 days post infection, 10-50% lethal doses, saline controls no survivors): survived over the 21-day experimental period | virus titers in the lungs, times lower than control mice ([12]; 2 to 6 days after the infection): more than 10 times | viral activity in the lungs ([12]; day 6): not detected

C[C@@H]1O[C@@H](Oc2c(-c3ccc(O)c(O)c3)oc3cc(O)cc(O)c3c2=O)[C@H](O)[C@H](O)[C@H]1O [Q3R, quercetin 3-rhamnoside]
cell viability [13]: about 100% | antiviral activity ([14]; 10 μg/ml, 2 days incubation): about 66% | antiviral activity ([14]; 100 μg/ml, 2 days incubation): about 86%

O=c1c(O)c(-c2ccc(O)c(O)c2)oc2cc(O)cc(O)c12 [quercetin, Quercetin]
epithelial damage and leukocytic influx [15]: significantly reduced | superoxide radicals production levels [15]: significantly reduced their levels | lipid peroxidation (LPO) products level after supplementation (raised by 85% in influenza group vs normal control) ([15]; P<0.05): 43% | decrease of mortality in the control group (infected and did not exercise) ([16]; quercetin 12.5 mg/kg via gavage for 7 days before viral challenge, 21 days monitoring): 22% | susceptibility to infection (morbidity, mortality, symptom severity on days 5-7) associated with stressful exercise ([16]; quercetin 12.5 mg/kg via gavage for 7 days, P<0.05): offset the increase in susceptibility to infection

CCOC(=O)C1=C[C@@H](OC(CC)CC)[C@H](NC(C)=O)[C@@H](N)C1 [Oseltamivir, reference compound]
cell viability [13]: about 100% | antiviral activity ([14]; 100 μg/ml, 2 days incubation): about 58% | antiviral activity ([14]; concentrations of less than 10 μg/ml): less than 49%
